BindingDB's records for doi:10.1016/S0960-894X(00)80683-6 (1993)

Experiments:
[1] = target: Gastrin/cholecystokinin type B receptor (Cavia porcellus); assay: Ability to inhibit the binding of [125I]-gastrin to gastric glands in guinea pig.
[2] = target: Gastrin/cholecystokinin type B receptor (Cavia porcellus); assay: Ability to inhibit the binding of [125I]CCK-8 to Cholecystokinin type B receptor in guinea pig cortex.
[3] = target: Gastrin/cholecystokinin type B receptor (Cavia porcellus); assay: as above; remark: listed apart in the source

Compound | IC50 [1] [nM] | IC50 [2] [nM] | IC50 [3] [nM]
CN1CCN(C(=O)CN2C(=O)C(NC(=O)Nc3ccc(Cl)cc3)N=C(c3ccccc3)c3ccccc32)CC1 (configuration not stated) [1-(4-Chloro-phenyl)-3-{1-[2-(4-methyl-piperazin-1-yl)-2-oxo-ethyl]-2-oxo-5-phenyl-2,3-dihydro-1H-benzo[e][1,4]diazepin-3-yl}-urea] | 2.6 | 8 | –
O=C(Nc1cccc2ccccc12)NC1CCc2ccccc2N(CC(=O)N2CCCC2)C1=O (configuration not stated) [1-Naphthalen-1-yl-3-[2-oxo-1-(2-oxo-2-pyrrolidin-1-yl-ethyl)-2,3,4,5-tetrahydro-1H-benzo[b]azepin-3-yl]-urea] | 460 | 650 | –
Cc1cccc(NC(=O)NC2CCc3ccccc3N(CC(=O)N3CCN(C)CC3)C2=O)c1 (configuration not stated) [1-{1-[2-(4-Methyl-piperazin-1-yl)-2-oxo-ethyl]-2-oxo-2,3,4,5-tetrahydro-1H-benzo[b]azepin-3-yl}-3-m-tolyl-urea] | 610 | – | 5000
CC(C)(C)OC(=O)CN1C(=O)C(NC(=O)Nc2cccc3ccccc23)CCc2ccccc21 (configuration not stated) [[3-(3-Naphthalen-1-yl-ureido)-2-oxo-2,3,4,5-tetrahydro-benzo[b]azepin-1-yl]-acetic acid tert-butyl ester] | 480 | – | 150
COc1cccc(NC(=O)NC2CCc3ccccc3N(CC(=O)O)C2=O)c1 (configuration not stated) [{3-[3-(3-Methoxy-phenyl)-ureido]-2-oxo-2,3,4,5-tetrahydro-benzo[b]azepin-1-yl}-acetic acid] | 3100 | 8600 | –
CC(C)(C)OC(=O)CN1C(=O)C(NC(=O)Nc2ccc(Cl)cc2)CCc2ccccc21 (configuration not stated) [{3-[3-(4-Chloro-phenyl)-ureido]-2-oxo-2,3,4,5-tetrahydro-benzo[b]azepin-1-yl}-acetic acid tert-butyl ester] | 120 | 180 | –
